Results on one molecule are retold here after PMC8962293, “Synthesis, Structure, and Antiproliferative Action of 2-Pyridyl Urea-Based Cu(II) Complexes” (Biomedicines, 2022).

What is called IC50 is the concentration needed to halve the response being measured. Lower therefore signals inhibition by little substance.

In data set [1] the test system is EGFR-mutant NCI-H1975 non-small cell lung carcinoma cells. As to the kind of experiment: MTT assay on NCI-H1975 cells. It is filed as cell-based, human. How it is done: (§1) A549, NCI-H460, NCI-H1975 lung cancer cells and WI-26 VA4 lung epithelial-like cells were purchased from the ATCC. A549 cells were maintained in F12-K (Corning, NY, USA) supplemented with 10% fetal bovine serum (Fetal Bovine Serum, qualified, Australia; Gibco, Loughborough, UK), penicillin (100 UI mL^−1), streptomycin (100 µg mL^−1), and GlutaMax (1.9 mM, Gibco, UK). NCI-H460 and NCI-H1975 cells were maintained in RPMI-1640 (ATCC modification) media (Gibco, Loughborough, UK) supplemented with 10% fetal bovine serum (Fetal Bovine Serum, qualified, Australia; Gibco, Loughborough, UK), penicillin (100 UI mL^−1), streptomycin (100 µg mL^−1), and GlutaMax (2 mM, Gibco, UK). WI-26 VA4 cells were maintained in Advanced MEM (Gibco, Loughborough, UK) supplemented with 5% fetal bovine serum (Fetal Bovine Serum, qualified, Australia, Gibco, UK), penicillin (100 UI mL^−1), streptomycin (100 µg mL^−1), and GlutaMax (1.87 mM, Gibco, Loughborough, UK). All cells line cultivation under a humidified atmosphere of 95% air/5% CO2 at 37 °C. Subconfluent monolayers, in the log growth phase, were harvested by a brief treatment with TrypLE Express solution (Gibco, Loughborough, UK) in phosphate buffered saline (PBS, Capricorn Scientific, Germany) and washed three times in serum-free PBS. The number of viable cells was determined by trypan blue exclusion.
(§2) The effects of the synthesized compounds on cell viability were determined using the MTT colorimetric test. All examined cells were diluted with the growth medium to 3.5 × 10^4 cells per mL and the aliquots (7 × 10^3 cells per 200 μL) were placed in individual wells in 96-well plates (Eppendorf, Hamburg, Germany) and incubated for 24 h. The next day, the cells were treated with synthesized compounds separately in concentration 10 and 100 μM (or 200.0 μM concentration and diluted at various concentrations for determination of IC50) and incubated for 72 h at 37 °C in 5% CO2 atmosphere. Each compound was tested in triplicate. After incubation, the cells were treated with 40 μL MTT solution (3-(4,5-dimethylthiazol-2-yl)-2,5-diphenyltetrazolium bromide, 5 mg mL^−1 in PBS) and incubated for 4 h. After additional 4-h incubation, the medium with MTT was removed and DMSO (150 μL) was added to dissolve the formazan crystals. The plates were shaken for 10 min. The optical density of each well was determined at 560 nm using GloMax Multi+ (Promega, Madison, WI, USA) microplate reader. Each of the tested compounds was evaluated for cytotoxicity in three separate experiments. All stock solutions for biological evaluations were prepared via dissolving synthesized compounds in DMSO.
For orientation: Tetrazolium dyes change colour on reduction, which living cells bring about.

In data set [2] the test system is A549 human lung carcinoma cells. As to the kind of experiment: MTT assay on A549 cells. In kind it is cell-based. The following applies: A549, 72 h. How it is done:
as §1, §2

The subject of data set [3] is non-cancerous lung fibroblast WI-26 VA4. As to the kind of experiment: MTT assay on WI-26 VA4 cells (non-specific cytotoxicity). Particulars: WI-26 VA4, 72 h. It is filed as cell-based, human. How it is done:
as §1, §2

Data set [4] concerns NCI-H460 non-small cell lung carcinoma cells. As to the kind of experiment: MTT assay on NCI-H460 cells. The following applies: NCI-H460, 72 h. It is filed as cell-based, human. As to the method:
as §1, §2

Data set [5] can be described thus: Molar conductivity in DMSO solution. It is filed as physicochemical. The following applies: DMSO solutions, 25 °C. As to the method: The preparation and characterization of starting pyridine-N-oxides as well as U1–12 are described previously. CuCl2, other reactants, and solvents were obtained from commercial sources. High-resolution mass-spectra (HRMS) were measured on Bruker Maxis HRMS-ESI-qTOF (Electrospray Ionization, ESI; Bruker, Billerica, MA, USA); a MeOH was used as the solvent. The instrument was operated at positive ion mode using m/z range of 50–3000. The capillary voltage of the ion source was set at –4500 V (ESI^+) and the capillary exit at +(70–150) V. The nebulizer gas pressure was 0.4 bar and drying gas flow was 4.0 L/min. The most intensive peak in the isotopic pattern is reported. Infrared spectra (4000–400 cm^–1) were recorded on a Shimadzu FTIR 8400S (Shimadzu, Kyoto, Japan) instrument in KBr pellets. The C, H, and N elemental analyses were carried out on a Leco TruSpec Micro CHNS analyzer (LECO, St. Joseph, MI, USA). TGA was performed on a ca. 2 mg samples of Cu(II) complexes by using a Netzsch TG 209 F1 Libra thermal analyzer (Netzsch, Selb, Germany). The samples were dried under a vacuum at 50 °C before heating from 40 to 450 °C at a heating rate of 10 K min^–1. A flow rate of 10 mL min^–1 of dry argon was used to purge the samples. Molar conductivity was measured with an Elico digital conductivity bridge model CM-88, using a freshly prepared DMSO solution of the complexes.

Data set [6] deals with NCI-H1975 cells. As to the kind of experiment: Cell cycle analysis by flow cytometry. In kind it is cell-based, human. The following applies: NCI-H1975, 10, 20, and 35 μM, 48 h. How it is done: For the cell cycle analysis, the cells (1 × 10^6 per well) were placed at 6-well culture plates (Eppendorf, Germany) and allowed to grow overnight. After the medium was replaced with solution tested compounds (10, 20, or 35 μM). The exposed cells were placed at 37 °C in a 5% CO2 incubator for 48 h. After the completion of incubations, cells were harvested by trypsinization, washed with PBS, centrifuged, fixed with 70% ethanol and incubated for 7 h at –20 °C. An aliquot of the pellet (200 µL) was washed with PBS, stained with 200 µL of the Guava Cell Cycle Reagent (Merck, Kenilworth, NJ, USA), and incubated for 30 min at room temperature in the dark. The cell cycle distribution was analyzed by flow cytometry on a CytoFlex (Beckham Coulter, Brea, CA, USA) and CytExpert 2.1 program.
On the technique in general: Flow cytometry measures light scatter and fluorescence of single cells or particles in a stream.

In data set [7] the test system is NCI-H1975 cells. As to the kind of experiment: Annexin V-FITC/PI double staining apoptosis assay. In kind it is cell-based, human. Particulars: NCI-H1975, 50 μM, 48-h incubation. As to the method:
For the detection of apoptosis, the cells were placed at 6-well culture plates (Eppendorf, Germany) and allowed to grow overnight. After the cells reached subconfluency, the medium was replaced with tested compounds (25 or 50 μM). The exposed cells were placed at 37 °C in a 5% CO2 incubator for 24 or 48 h. The cultured cells were washed twice with PBS and resuspended in 1× binding buffer (AnnexinV-FITC kit, Invitrogen, Waltham, MA, USA) at a concentration 1 × 10^6 mL^−1. Annexin FITC (5 μL) and propidium iodide (PI, 2 μL) were added to 100 μL of the cell suspension and incubated for 15 min at room temperature (25 °C) in the dark. After incubation, 400 μL of 1× binding buffer was added to each tube and the stained cells were analyzed within 1 h using CytoFlex (Beckman Coulter, Brea, CA, USA) and CytExpert 2.1 program. Since the AnnexinV-FITC staining precedes the loss of membrane integrity that accompanies the later stage identified by PI, Annexin FITC positive, PI negative indicates early apoptosis, while the viable cells are Annexin V FITC negative, PI negative. The cells that are in late apoptosis or dead are both Annexin V FITC and PI positive.

Turning to `CN(C)C(=O)Nc1cc([N+](=O)[O-])ccn1.CN(C)C(=O)Nc1cc([N+](=O)[O-])ccn1.[Cl-].[Cl-].[Cu+2]` [[Cu(U3)2Cl2]], the IC50 in data set [1] (NCI-H1975, 72 h, MTT) stood at 39.6 ± 4.5 µM; in data set [2], 61.4 ± 6.52 µM; in data set [3], 81.6 ± 10.1 µM; in data set [4], 77.5 ± 6.4 µM. Further, in data set [1] (NCI-H1975 vs WI-26 VA4), the “selectivity over the healthy human cells WI-26 VA4” value was “the most selective”. Further, the Molar conductivity in data set [5] is on record as 24.1 Ω^−1·cm^2·mol^−1. Further, the “cells trapped in the G2 phase” value in data set [6] is “profound increase”. In addition, the “number of cells in the G1 phase” value in data set [6] is “remarkable drop”. Further, the “percentage of dead cells” value in data set [7] (control 0.28%) came out at 2.87%. Moreover, the “percent of Annexin V FITC-positive early apoptotic cells” value in data set [7] (control 5.25%) was 16.30%. The “late apoptotic fraction in cell population” value in data set [7] (control 12.02%) is 22.38%.
